Entries after “also recorded” stand apart in the source; their conditions may differ.
Tests used:
[1] = test system: C3H/HeJ mice after bilateral removal of SCG (SCGx); test: Assessment of diurnal rhythm after bilateral removal of SCG (SCGx); type: in vivo; details: 50 μg melatonin once intraperitoneally
[2] = test system: nicotine-stimulated sympathetic neurons co-cultured with LPS-preactivated macrophages; test: Co-culture of sympathetic neurons and bone marrow-derived macrophages; type: cell-based, mouse; details: CVF 20 U/ml for 90 min on LPS-preactivated macrophages; 1 μM nicotine; 48 h co-culture
Method: For the co-culture experiment, BMDM precursors were isolated and differentiated to macrophages as mentioned above. On day 6 of differentiation, primary neurons were isolated as described above. ˜5,000 neurons were seeded on separate wells of a 96-well Ibidi plate precoated with Laminin (0.1 mg/ml). At day 7 of differentiation, macrophages were either stimulated with PBS (control) or LPS (5 ng/ml) overnight. On the following day, LPS-preactivated macrophages were either incubated with PBS (control) or Cobra Venom Factor (CVF; 20 U/ml) for 90 min at 37° C. for complement inhibition. Afterwards, macrophages were chemically detached from the Petri dishes using Accutase and seeded around neurons. ˜10,000 macrophages were added per well. Co-culture medium was a mixture of neuronal and macrophage medium. Furthermore, part of the co-culture medium was supplemented with 1 μM Nicotine for artificial neuronal stimulation. 4 wells were cultivated per condition. One well per condition was transferred into the EVOS M7000 for live cell imaging (timelapse). […]
After 48 hours of co-culture (at 37° C. and 5% CO2), cells were fixated using 4% Paraformaldehyde. […] For quantification, two tilescans (2×2) per well were acquired using a 63× objective of a confocal microscope (Leica TCS SP5 II) and quantified for neuronal cell number and axonal dimensions using Imaris (Bitplane, version 9.5). […]

Molecule | diurnal rhythmicity (activity, ratio between dark and light) [1] | neurite outgrowth (axon length, branching points) [2] | neuronal cell loss (neuronal cell number per field of view) [2]
COc1ccc2[nH]cc(CCNC(C)=O)c2c1 [melatonin] | completely restored; also recorded: rescued | – | –
Cobra venom factor | – | rescued | effectively prevented
